Source: patent publication US20240365784A1, “AZOLE COMPOUNDS FOR CONTROLLING INVERTEBRATE PESTS” (FMC Corporation, priority 2021, published 2024)

How the values were obtained:
Format in all cases: in vivo
[1] = test system: corn planthopper (Peregrinus maidis (Ashmead)); test: whole plant or invertebrate; settings: 144 h, corn plant, nymphs, assessed after 6 days; for mortality at 50 ppm: sprayed at 50 ppm; for mortality at 10 ppm: sprayed at 10 ppm
Method: (§1) Test compounds were formulated using a solution containing 10% acetone, 90% water and 300 ppm Activator 90® non-ionic surfactant (Loveland Products, Loveland, Colorado, USA). The formulated compounds were applied in 1 mL of liquid through an atomizer nozzle positioned 1.27 cm (0.5 inches) above the top of each test unit. Test compounds were sprayed at the rates indicated, and each test was replicated three times.
For evaluating control of corn planthopper (Peregrinus maidis (Ashmead)) through contact and/or systemic means, the test unit consisted of a small open container with a 3-4-day-old corn (maize) plant inside. White sand was added to the top of the soil prior to application of the test compound.
(§2) Test compounds were formulated and sprayed at 250 and/or 50 ppm and/or 10 ppm. After spraying of the formulated test compound, the test units were allowed to dry for 1 h before they were post-infested with ˜15-20 nymphs (18-to-21-day-old). A black, screened cap was placed on the top of each test unit, and the test units were held for 6 days in a growth chamber at 22-24° C. and 50-70% relative humidity. Each test unit was then visually assessed for insect mortality.

[2] = test system: cotton melon aphid (Aphis gossypii (Glover)); test: whole plant or invertebrate; settings: 144 h, okra plant, assessed after 6 days; for mortality at 50 ppm: sprayed at 50 ppm; for mortality at 10 ppm: tested at 10 ppm
Method: as §1
For evaluating control of cotton melon aphid (Aphis gossypii (Glover)) through contact and/or systemic means, the test unit consisted of a small open container with a 5-day-old okra plant inside. This was pre-infested with 30-40 insects on a piece of leaf according to the cut-leaf method, and the soil of the test unit was covered with a layer of sand.
[…] After spraying, the test units were maintained in a growth chamber for 6 days at 19° C. and 70% relative humidity. Each test unit was then visually assessed for insect mortality.

[3] = test system: green peach aphid (Myzus persicae (Sulzer)); test: whole plant or invertebrate; settings: 144 h, sprayed at 50 ppm, radish plant, assessed after 6 days
Method: as §1
For evaluating control of green peach aphid (Myzus persicae (Sulzer)) through contact and/or systemic means, the test unit consisted of a small open container with a 12-15-day-old radish plant inside. This was pre-infested by placing on a leaf of the test plant 30-40 aphids on a piece of leaf excised from a culture plant (cut-leaf method). The aphids moved onto the test plant as the leaf piece desiccated. After pre-infestation, the soil of the test unit was covered with a layer of sand.
Test compounds were formulated and sprayed at 250 and/or 50 ppm. After spraying of the formulated test compound, each test unit was allowed to dry for 1 hour and then a black, screened cap was placed on top. The test units were held for 6 days in a growth chamber at 19-21° C. and 50-70% relative humidity. Each test unit was then visually assessed for insect mortality.

[4] = test system: sweetpotato whitefly (Bemisia tabaci (Gennadius)); test: whole plant or invertebrate; settings: 312 h, cotton plant infested with eggs, assessed after 13 days; for mortality at 50 ppm: sprayed at 50 ppm; for mortality at 10 ppm: tested at 10 ppm
Method: as §1
For evaluating control of the sweetpotato whitefly (Bemisia tabaci (Gennadius)) through contact and/or systemic means, the test unit consisted of a small open container with a 12-14-day-old cotton plant inside. Prior to the spray application, both cotyledons were removed from the plant, leaving one true leaf for the assay. Adult whiteflies were allowed to lay eggs on the plant and then were removed from the test unit. Cotton plants infested with at least 15 eggs were submitted to the test for spraying.
[…] After spraying, the test units were allowed to dry for 1 hour. The cylinders were then removed, and the units were taken to a growth chamber and held for 13 days at 28° C. and 50-70% relative humidity. Each test unit was then visually assessed for insect mortality.

[5] = test system: Brown Planthopper (Nilaparvata lugens (Stil)); test: Test F: control of Brown Planthopper, spray, contact and/or systemic; settings: 120 h, sprayed at 10 ppm, rice stems, nymphs, assessed after 5 days
Method: as §1
For evaluating control of Brown Planthopper (Nilaparvata lugens (Stil)) through contact and/or systemic means, the test unit consisted of a small open container with 6-10 25-day-old rice stems inside. White sand was added to the top of the soil prior to application of the test compound.
as §2, with “at” for “at 250 and/or”, “(15-to-17-day-old).” for “(18-to-21-day-old).”, “5” for “6”, “28°” for “22-24°”, “65%” for “50-70%”

| Structure (SMILES) | mortality at 50 ppm [1] [%] | mortality at 50 ppm [2] [%] | mortality at 10 ppm [1] [%] | mortality at 50 ppm [3] [%] | mortality at 50 ppm [4] [%] | mortality at 10 ppm [4] [%] | mortality at 10 ppm [2] [%] | mortality at 10 ppm [5] [%] |
| --- | --- | --- | --- | --- | --- | --- | --- | --- |
| CC(c1ccc(SC(F)(F)F)cc1)c1c(F)cncc1-n1ccnn1 (centres unmarked) [Compound 11] | ≥ 80 | ≥ 80 |  |  |  |  |  |  |
| FC(F)(F)Oc1ccc(Cc2c(Cl)cncc2-n2nccn2)cc1Cl [Compound 71] | ≥ 80 | ≥ 80 | ≥ 80 | ≥ 80 | ≥ 70 | ≥ 70 |  |  |
| CCC(c1ccc(OC(F)(F)F)cc1)c1c(F)cncc1-n1nccn1 (centres unmarked) [Compound 60] | ≥ 80 | ≥ 80 |  |  | ≥ 70 | ≥ 70 |  |  |
| FC(F)(F)Sc1ccc(Cc2c(Cl)cncc2-n2ccnn2)cc1 [Compound 6] | ≥ 80 |  |  |  | ≥ 70 |  |  |  |
| Fc1cc(Cc2c(F)cncc2-n2nccn2)ccc1C(F)(F)F [Compound 73] | ≥ 80 | ≥ 80 | ≥ 80 |  |  |  | ≥ 80 |  |
| FC(F)Oc1ccc(Cc2c(Cl)cncc2-n2cccn2)cc1 [Compound 45] | ≥ 80 | ≥ 80 | ≥ 80 |  | ≥ 70 |  |  |  |
| CC(c1ccc(SC(F)(F)F)cc1)c1c(F)cncc1-n1nccn1 (centres unmarked) [Compound 8] | ≥ 80 | ≥ 80 | ≥ 80 | ≥ 80 |  |  | ≥ 80 | ≥ 80 |
| FC(F)(F)Oc1ccc(Cc2c(Br)cncc2-n2nccn2)cc1 [Compound 15] |  | ≥ 80 |  | ≥ 80 | ≥ 70 |  |  |  |
| CC(c1ccc(OC(F)(F)F)cc1)c1c(F)cncc1-n1nccn1 (centres unmarked) [Compound 9, 3-fluoro-5-(triazol-2-yl)-4-[1-[4-(trifluoromethoxy)phenyl]ethyl]pyridine] | ≥ 80 | ≥ 80 | ≥ 80 | ≥ 80 | ≥ 70 |  | ≥ 80 |  |
| Fc1cncc(-n2nccn2)c1Cc1cccc(OC(F)(F)C(F)F)c1 [Compound 65] | ≥ 80 | ≥ 80 |  |  |  |  |  |  |
| FC(F)(F)Oc1ccc(Cc2ccncc2-n2nccn2)cc1 [Compound 16] | ≥ 80 | ≥ 80 |  |  | ≥ 70 |  | ≥ 80 |  |
| CC(c1ccc(SC(F)(F)F)cc1)c1c(Cl)cncc1-n1nccn1 (centres unmarked) [Compound 14] |  | ≥ 80 |  | ≥ 80 | ≥ 70 |  |  |  |
| Fc1cc(Cc2c(Cl)cncc2-n2nccn2)ccc1C(F)(F)F [Compound 72] | ≥ 80 | ≥ 80 | ≥ 80 | ≥ 80 | ≥ 70 |  |  |  |
| FC(F)(F)Sc1ccc(Cc2c(Cl)cncc2-c2ncco2)cc1 [Compound 37] | ≥ 80 |  |  |  |  |  |  |  |
| FC(F)(F)Sc1ccc(Cc2ccncc2-n2nccn2)cc1 [Compound 23] | ≥ 80 | ≥ 80 | ≥ 80 | ≥ 80 | ≥ 70 |  |  |  |
| CC(c1ccc(SC(F)(F)F)cc1)c1c(F)cncc1-n1cncn1 (centres unmarked) [Compound 52] | ≥ 80 | ≥ 80 |  | ≥ 80 | ≥ 70 |  |  |  |
| Fc1cncc(-c2ncco2)c1Cc1ccc(SC(F)(F)F)cc1 [Compound 30] | ≥ 80 | ≥ 80 | ≥ 80 |  |  |  | ≥ 80 |  |
